Patent publication US10292391B2, “Pesticidally active 1,2,4-triazole derivatives with sulphur containing substituents” (Syngenta Participations AG, priority 2015, dated 2019)

Key:
Type in all cases: in vivo
[1] = test system: Euschistus heros(Neotropical Brown Stink Bug); test: Activity against Euschistus heros, sprayed soybean leaf; details: 120 h, application rate of 200 ppm, N-2 nymphs, 5 days after infestation, read-out: effect in at least one of the two categories (mortality or growth inhibition)
Description: Soybean leaf on agar in 24-well microtiter plates were sprayed with aqueous test solutions prepared from 10,000 ppm DMSO stock solutions. After drying the leaf were infested with N-2 nymphs. The samples were assessed for mortality and growth inhibition in comparison to untreated samples 5 days after infestation.

[2] = test system: Spodoptera littoralis (Egyptian Cotton Leaf Worm); test: Activity against Spodoptera littoralis, systemic via lettuce grown on treated agar; details: 144 h, test rate of 12.5 ppm, root uptake by lettuce, 6 days after infestation, read-out: effect in at least one of the three categories (mortality, anti-feedancy, or growth inhibition)
Description: Test compounds were applied by pipette from 10,000 ppm DMSO stock solutions into 24-well plates and mixed with agar. Lettuce seeds were placed on the agar and the multi well plate was closed by another plate which contains also agar. After 7 days the roots have absorbed the compound and the lettuce has grown into the lid plate. The lettuce leafs were now cut off into the lid plate. Spodoptera eggs were pipetted through a plastic stencil on a humid gel blotting paper and the plate closed with it. The samples were assessed for mortality, anti-feedant effect and growth inhibition in comparison to untreated samples 6 days after infestation.

[3] = test system: Plutella xylostella (Diamond Back Moth); test: Activity against Plutella xylostella, treated artificial diet; details: 120 h, application rate of 200 ppm, L2 larvae, 5 days after infestation, read-out: effect in at least one of the two categories (mortality or growth inhibition)
Description: (§1) 24-well microtiter plates with artificial diet were treated with aqueous test solutions prepared from 10,000 ppm DMSO stock solutions by pipetting. After drying, the plates were infested with L2 larvae (10 to 15 per well). The samples were assessed for mortality and growth inhibition in comparison to untreated samples 5 days after infestation.

[4] = test system: Diabrotica Balteata (Corn Root Worm); test: Activity against Diabrotica balteata, sprayed maize sprouts; details: 96 h, application rate of 200 ppm, L2 larvae, 4 days after infestation, read-out: effect in at least one of the two categories (mortality or growth inhibition)
Description: as §1, with “Maize sprouts, placed on an agar layer in 24-well” for “24-well”, “plates” for “plates with artificial diet”, “spraying.” for “pipetting.”, “(6” for “(10”, “10” for “15”, “4” for “5”

[5] = test system: Myzus persicae (Green Peach Aphid); test: Activity against Myzus persicae, sprayed sunflower leaf discs; details: foliar, 144 h, application rate of 200 ppm, aphid population of mixed ages, 6 days after infestation
Description: (§2) Sunflower leaf discs were placed on agar in a 24-well microtiter plate and sprayed with aqueous test solutions prepared from 10,000 ppm DMSO stock solutions. After drying, the leaf discs were infested with an aphid population of mixed ages. The samples were assessed for mortality 6 days after infestation.

[6] = test system: Frankliniella occidentalis (Western Flower Thrips); test: Activity against Frankliniella occidentalis, sprayed sunflower leaf discs; details: foliar, 168 h, application rate of 200 ppm, population of mixed ages, 7 days after infestation
Description: as §2, with “in” for “in a”, “plates” for “plate”, “10,000” for “10,000 ppm”, “drying” for “drying,”, “a Frankliniella” for “an aphid”, “7” for “6”

[7] = test system: Spodoptera littoralis (Egyptian Cotton Leaf Worm); test: Activity against Spodoptera littoralis, sprayed cotton leaf discs; details: foliar, 72 h, application rate of 200 ppm, L1 larvae, 3 days after infestation, read-out: control (at least one of mortality, anti-feedant effect, and growth inhibition)
Description: Cotton leaf discs were placed on agar in 24-well microtiter plates and sprayed with aqueous test solutions prepared from 10,000 ppm DMSO stock solutions. After drying the leaf discs were infested with five L1 larvae. The samples were assessed for mortality, anti-feedant effect, and growth inhibition in comparison to untreated samples 3 days after infestation. Control of Spodoptera littoralis by a test sample is when at least one of mortality, anti-feedant effect, and growth inhibition is higher than the untreated sample.

[8] = test system: Thrips tabaci (Onion Thrips); test: Activity against Thrips tabaci, sprayed sunflower leaf discs; details: foliar, 144 h, application rate of 200 ppm, thrips population of mixed ages, 6 days after infestation
Description: as §2, with “in” for “in a”, “plates” for “plate”, “drying” for “drying,”, “a thrips” for “an aphid”

[9] = test system: Myzus persicae (Green Peach Aphid); test: Activity against Myzus persicae, systemic via roots of pea seedlings; details: 144 h, test rate of 24 ppm, roots of pea seedlings in test solution, 6 days
Description: Roots of pea seedlings infested with an aphid population of mixed ages were placed directly in the aqueous test solutions prepared from 10,000 DMSO stock solutions. The samples were assessed for mortality 6 days after placing seedlings in test solutions.

[10] = test system: Bemisia tabaci (Cotton White Fly); test: Activity against Bemisia tabaci, sprayed cotton leaf discs; details: foliar, 144 h, application rate of 200 ppm, adult white flies, 6 days after incubation
Description: Cotton leaf discs were placed on agar in 24-well microtiter plates and sprayed with aqueous test solutions prepared from 10,000 ppm DMSO stock solutions. After drying the leaf discs were infested with adult white flies. The samples were checked for mortality 6 days after incubation.

CCS(=O)(=O)c1cc(-n2cc(Cl)cn2)cnc1-c1nnc(-c2cc(C(F)(F)F)ccn2)n1C [Compound P7]
≥ 80%: percent effect (mortality or growth inhibition) at 200 ppm [1] | percent control (mortality, anti-feedancy or growth inhibition) at 12.5 ppm [2] | percent effect (mortality or growth inhibition) at 200 ppm [3] | percent effect (mortality or growth inhibition) at 200 ppm [4] | mortality at 200 ppm [5] | mortality at 200 ppm [6] | mortality at 200 ppm [7] | mortality at 200 ppm [8]

CCS(=O)(=O)c1cc(-c2ncccn2)cnc1-c1nnc(-c2cc(C(F)(F)F)ccn2)n1C [Compound P9, 2-[5-ethylsulfonyl-6-[4-methyl-5-[4-(trifluoromethyl)-2-pyridyl]-1,2,4-triazol-3-yl]-3-pyridyl]pyrimidine]
≥ 80%: percent effect (mortality or growth inhibition) at 200 ppm [1] | percent control (mortality, anti-feedancy or growth inhibition) at 12.5 ppm [2] | percent effect (mortality or growth inhibition) at 200 ppm [3] | percent effect (mortality or growth inhibition) at 200 ppm [4] | mortality at 200 ppm [5] | mortality at 200 ppm [6] | mortality at 24 ppm [9] | mortality at 200 ppm [7]

C=C(OCC)c1cnc(-c2nnc(-c3cc(C(F)(F)F)ccn3)n2C)c(S(=O)(=O)CC)c1 [Compound P13]
≥ 80%: percent effect (mortality or growth inhibition) at 200 ppm [3] | percent effect (mortality or growth inhibition) at 200 ppm [4] | mortality at 200 ppm [5] | mortality at 200 ppm [6] | mortality at 200 ppm [7] | mortality at 200 ppm [8]

CCS(=O)(=O)c1cc(-n2cnc(C#N)c2)cnc1-c1nnc(-c2cc(C(F)(F)F)ccn2)n1C [Compound P15]
≥ 80%: mortality at 24 ppm [9] | mortality at 200 ppm [8]

CCS(=O)(=O)c1cc(-c2ccc(C#N)cn2)cnc1-c1nnc(-c2cc(C(F)(F)F)ccn2)n1C [Compound P22]
≥ 80%: percent effect (mortality or growth inhibition) at 200 ppm [1] | percent control (mortality, anti-feedancy or growth inhibition) at 12.5 ppm [2] | percent effect (mortality or growth inhibition) at 200 ppm [3] | percent effect (mortality or growth inhibition) at 200 ppm [4] | mortality at 200 ppm [5] | mortality at 200 ppm [6] | mortality at 200 ppm [7] | mortality at 200 ppm [8]

CCS(=O)(=O)c1cc(-c2cc(C#N)ccn2)cnc1-c1nnc(-c2cc(C(F)(F)F)ccn2)n1C [Compound P23]
≥ 80%: percent effect (mortality or growth inhibition) at 200 ppm [1] | percent control (mortality, anti-feedancy or growth inhibition) at 12.5 ppm [2] | percent effect (mortality or growth inhibition) at 200 ppm [3] | percent effect (mortality or growth inhibition) at 200 ppm [4] | mortality at 200 ppm [5] | mortality at 200 ppm [6] | mortality at 24 ppm [9] | mortality at 200 ppm [7] | mortality at 200 ppm [8]

CCS(=O)(=O)c1cc(-c2ccc(Cl)cn2)cnc1-c1nnc(-c2cc(C(F)(F)F)ccn2)n1C [Compound P25]
≥ 80%: percent effect (mortality or growth inhibition) at 200 ppm [1] | percent control (mortality, anti-feedancy or growth inhibition) at 12.5 ppm [2] | percent effect (mortality or growth inhibition) at 200 ppm [3] | percent effect (mortality or growth inhibition) at 200 ppm [4] | mortality at 200 ppm [7] | mortality at 200 ppm [8]

CCS(=O)(=O)c1cc(-c2cc(Cl)ccn2)cnc1-c1nnc(-c2cc(C(F)(F)F)ccn2)n1C [Compound P26]
≥ 80%: percent effect (mortality or growth inhibition) at 200 ppm [1] | percent control (mortality, anti-feedancy or growth inhibition) at 12.5 ppm [2] | percent effect (mortality or growth inhibition) at 200 ppm [3] | percent effect (mortality or growth inhibition) at 200 ppm [4] | mortality at 200 ppm [5] | mortality at 200 ppm [6] | mortality at 200 ppm [7] | mortality at 200 ppm [8]

CCS(=O)(=O)c1cc(C2CC2)cnc1-c1nnc(-c2cc(C(F)(F)F)ccn2)n1C [Compound P29, 5-cyclopropyl-3-ethylsulfonyl-2-[4-methyl-5-[4-(trifluoromethyl)-2-pyridyl]-1,2,4-triazol-3-yl]pyridine]
≥ 80%: percent control (mortality, anti-feedancy or growth inhibition) at 12.5 ppm [2] | percent effect (mortality or growth inhibition) at 200 ppm [3] | percent effect (mortality or growth inhibition) at 200 ppm [4] | mortality at 200 ppm [5] | mortality at 24 ppm [9] | mortality at 200 ppm [7] | mortality at 200 ppm [8]

CCS(=O)(=O)c1ccc(-c2ccc(C(F)(F)F)cc2)nc1-c1nnc(-c2cc(C(F)(F)F)ccn2)n1C [Compound P32, 3-ethylsulfonyl-2-[4-methyl-5-[4-(trifluoromethyl)-2-pyridyl]-1,2,4-triazol-3-yl]-6-[4-(trifluoromethyl)phenyl]pyridine]
≥ 80%: percent effect (mortality or growth inhibition) at 200 ppm [3] | mortality at 200 ppm [10] | percent effect (mortality or growth inhibition) at 200 ppm [4] | mortality at 200 ppm [7] | mortality at 200 ppm [8]

CCS(=O)(=O)c1ccc(-n2cncn2)nc1-c1nnc(-c2cc(C(F)(F)F)ccn2)n1C [Compound P37]
≥ 80%: percent effect (mortality or growth inhibition) at 200 ppm [1] | percent effect (mortality or growth inhibition) at 200 ppm [3] | mortality at 200 ppm [10] | percent effect (mortality or growth inhibition) at 200 ppm [4] | mortality at 200 ppm [5] | mortality at 24 ppm [9] | mortality at 200 ppm [7]

CCS(=O)(=O)c1ccc(-c2ncccn2)nc1-c1nnc(-c2cc(C(F)(F)F)ccn2)n1C [Compound P39]
≥ 80%: percent effect (mortality or growth inhibition) at 200 ppm [1] | percent control (mortality, anti-feedancy or growth inhibition) at 12.5 ppm [2] | percent effect (mortality or growth inhibition) at 200 ppm [3] | percent effect (mortality or growth inhibition) at 200 ppm [4] | mortality at 200 ppm [5] | mortality at 24 ppm [9] | mortality at 200 ppm [7]

CCS(=O)(=O)c1cc(-n2cncn2)cnc1-c1nnc(-c2cc(C(F)(F)F)ncn2)n1C [Compound P46]
≥ 80%: percent effect (mortality or growth inhibition) at 200 ppm [4] | mortality at 200 ppm [5] | mortality at 200 ppm [6] | mortality at 24 ppm [9]

CCS(=O)(=O)c1ccc(-n2cncn2)nc1-c1nnc(-c2cc(C(F)(F)F)ncn2)n1C [Compound P47]
≥ 80%: percent effect (mortality or growth inhibition) at 200 ppm [1] | percent effect (mortality or growth inhibition) at 200 ppm [4] | mortality at 200 ppm [5] | mortality at 24 ppm [9]

CCS(=O)(=O)c1ccc(-n2cnc(Cl)n2)nc1-c1nnc(-c2cc(C(F)(F)F)ncn2)n1C [Compound P48, 4-[5-[6-(3-chloro-1,2,4-triazol-1-yl)-3-ethylsulfonyl-2-pyridyl]-4-methyl-1,2,4-triazol-3-yl]-6-(trifluoromethyl)pyrimidine]
≥ 80%: percent effect (mortality or growth inhibition) at 200 ppm [1] | percent control (mortality, anti-feedancy or growth inhibition) at 12.5 ppm [2] | percent effect (mortality or growth inhibition) at 200 ppm [3] | mortality at 200 ppm [10] | percent effect (mortality or growth inhibition) at 200 ppm [4] | mortality at 200 ppm [5] | mortality at 200 ppm [6] | mortality at 200 ppm [7]

CCS(=O)(=O)c1ccc(-c2ncccn2)nc1-c1nnc(-c2cc(C(F)(F)F)ncn2)n1C [Compound P54]
≥ 80%: percent effect (mortality or growth inhibition) at 200 ppm [1] | percent effect (mortality or growth inhibition) at 200 ppm [3] | percent effect (mortality or growth inhibition) at 200 ppm [4] | mortality at 200 ppm [5] | mortality at 200 ppm [6] | mortality at 24 ppm [9]
